Patent US5552427A, “Glutaminase inhibitory compounds, compositions, and methods of use” (Takeda Chemical Industries, Ltd., priority 1993, dated 1996)
≈ marks a conversion by molar mass, not a printed value. Counter-ions that a name gives are not always drawn. Like-named read-outs stand apart in the source and are kept apart here. Each block holds one compound with its values, some of them ahead of it.

How the values were obtained:
[1] = target: T1, mitochondrial membrane enzyme glutaminase (Homo sapiens, UniProt O94925); experiment: Inhibitory activity against the mitochondrial membrane enzyme glutaminase (crude enzyme of WiDr cells); format: biochemical; conditions: WiDr mitochondrial fraction, tritium-labelled glutamine 0.8 μM, phosphoric acid 200 mM, pH 8.0, 37° C., 15 minutes; read-out: IC50, enzymatic activity of glutaminase
T1 sequence (O94925 73-669 limits assumed): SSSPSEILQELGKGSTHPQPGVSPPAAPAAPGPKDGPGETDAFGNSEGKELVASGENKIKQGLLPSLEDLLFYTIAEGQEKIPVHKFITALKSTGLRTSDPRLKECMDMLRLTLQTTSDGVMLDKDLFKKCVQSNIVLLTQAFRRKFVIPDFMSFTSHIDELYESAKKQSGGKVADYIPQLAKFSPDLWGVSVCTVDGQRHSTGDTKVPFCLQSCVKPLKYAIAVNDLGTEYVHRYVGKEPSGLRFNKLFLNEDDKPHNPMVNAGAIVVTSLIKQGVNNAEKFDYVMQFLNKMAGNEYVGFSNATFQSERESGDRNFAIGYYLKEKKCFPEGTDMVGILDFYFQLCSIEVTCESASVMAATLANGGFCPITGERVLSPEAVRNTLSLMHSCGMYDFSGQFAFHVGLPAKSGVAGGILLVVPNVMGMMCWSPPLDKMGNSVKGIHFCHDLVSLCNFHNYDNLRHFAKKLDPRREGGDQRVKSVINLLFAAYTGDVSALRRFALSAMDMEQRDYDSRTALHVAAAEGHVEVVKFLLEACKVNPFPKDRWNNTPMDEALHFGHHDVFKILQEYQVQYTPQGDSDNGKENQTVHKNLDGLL

[2] = system: human normal fetal pulmonary fibroblasts HEL; experiment: In vitro cell proliferation inhibitory activity (Table 1), normal cells HEL, MTT; format: cell-based; conditions: Pulmonary fibroblast, 72 h, read-out: IC50, Normal cells HEL
[3] = system: human colon carcinoma cells WiDr; experiment: In vitro cell proliferation inhibitory activity (Table 1), colon carcinoma cells WiDr, MTT; format: cell-based; conditions: 72 h, read-out: IC50, Colon carcinoma cells WiDr
[4] = system: large intestinal cancer cell strains; experiment: Cell proliferation inhibitory tests, panel as a whole (selectivity in words); format: cell-based, human; conditions: large intestinal cancer cells / tumor cells
Experimental: A cellular suspension (50 μl, 2,000 cells) of the human colon carcinoma cells WiDr or human normal fetal pulmonary fibroblasts HEL was inoculated in a 96-well microplate, and incubated at 37° C. in a 5% carbonic acid gas incubator. The next day, a 2-fold serially diluted solution (50 μl) of each compound was added and incubated for 3 days. The culture broth containing the compound was removed, the cells were washed, MTT pigment solution was added, and the surviving cell number was determined (Tada et al., J. Immunol. Methods, 93, 157-165 (1986)). The cell amount in a control group not treated with the compound solution was used as a standard (100%). The ratio of the cell amount in each treated group to that in the control group was calculated, and the IC50 (i.e., a compound concentration required for decreasing the surviving cell amount to 50% of that in the control group) was calculated.
(§1) to that in the control group was calculated, and the IC50 (i.e., a compound concentration required for decreasing the surviving cell amount to 50% of that in the control group) was calculated.

[5] = system: Colon carcinoma SW620; experiment: Cell proliferation inhibitory test (Table 2); format: cell-based; conditions: Homo sapiens, SW-620; Colon carcinoma SW620 (Table 2); read-out: IC50, cell strain SW620
Experimental: as §1

[6] = system: Colon carcinoma T84; experiment: Cell proliferation inhibitory test (Table 2); format: cell-based; conditions: Colon carcinoma T84 (Table 2); read-out: IC50, cell strain T84
Experimental: as §1

[7] = system: Throat cancer KB; experiment: Cell proliferation inhibitory test (Table 2); format: cell-based; conditions: Throat cancer KB (Table 2); read-out: IC50, cell strain KB
Experimental: as §1

[8] = system: Colon carcinoma SW948; experiment: Cell proliferation inhibitory test (Table 2); format: cell-based; conditions: Homo sapiens; Colon carcinoma SW948 (Table 2); read-out: IC50, cell strain SW948
Experimental: as §1

[9] = system: Colon carcinoma WiDr; experiment: Cell proliferation inhibitory test (Table 2); format: cell-based; conditions: Homo sapiens; Colon carcinoma WiDr (Table 2); read-out: IC50, cell strain WiDr
Experimental: as §1

[10] = system: Breast carcinoma SK-BR-3; experiment: Cell proliferation inhibitory test (Table 2); format: cell-based; conditions: Homo sapiens; Breast carcinoma SK-BR-3 (Table 2); read-out: IC50, cell strain SK-BR-3
Experimental: as §1

[11] = system: Lung carcinoma A549; experiment: Cell proliferation inhibitory test (Table 2); format: cell-based; conditions: Homo sapiens; Lung carcinoma A549 (Table 2); read-out: IC50, cell strain A549
Experimental: as §1

[12] = system: Colon carcinoma LoVo; experiment: Cell proliferation inhibitory test (Table 2); format: cell-based; conditions: Homo sapiens; Colon carcinoma LoVo (Table 2); read-out: IC50, cell strain LoVo
Experimental: as §1

[13] = system: Breast carcinoma MDA-MB-453; experiment: Cell proliferation inhibitory test (Table 2); format: cell-based; conditions: Homo sapiens; Breast carcinoma MDA-MB-453 (Table 2); read-out: IC50, cell strain MDA-MB-453
Experimental: as §1

[14] = system: Colon carcinoma SW403; experiment: Cell proliferation inhibitory test (Table 2); format: cell-based; conditions: Homo sapiens, SW-403; Colon carcinoma SW403 (Table 2); read-out: IC50, cell strain SW403
Experimental: as §1

[15] = system: Breast carcinoma Hs578T; experiment: Cell proliferation inhibitory test (Table 2); format: cell-based; conditions: Homo sapiens, Hs-578T; Breast carcinoma Hs578T (Table 2); read-out: IC50, cell strain Hs578T
Experimental: as §1

[16] = system: Colon carcinoma SW48; experiment: Cell proliferation inhibitory test (Table 2); format: cell-based; conditions: Homo sapiens; Colon carcinoma SW48 (Table 2); read-out: IC50, cell strain SW48
Experimental: as §1

[17] = system: Colon carcinoma LS180; experiment: Cell proliferation inhibitory test (Table 2); format: cell-based; conditions: Homo sapiens; Colon carcinoma LS180 (Table 2); read-out: IC50, cell strain LS180
Experimental: as §1

[18] = system: Breast carcinoma T-47D; experiment: Cell proliferation inhibitory test (Table 2); format: cell-based; conditions: Homo sapiens, T47D; Breast carcinoma T-47D (Table 2); read-out: IC50, cell strain T-47D
Experimental: as §1

[19] = system: Breast carcinoma MDA-MB-231; experiment: Cell proliferation inhibitory test (Table 2); format: cell-based; conditions: Homo sapiens; Breast carcinoma MDA-MB-231 (Table 2); read-out: IC50, cell strain MDA-MB-231
Experimental: as §1

[20] = system: human colon carcinoma cells WiDr transplanted to nude mice; experiment: In vivo colon carcinoma inhibitory activity, WiDr transplanted to nude mice (Test Example 3); set-up: species or system human cells in Balb/C female nude mice; conditions: oral; for Proliferation rate (tumor volume, treated/control): 3 times a day for 3 days, control = 100
Experimental: In vivo colon carcinoma inhibitory activity
The human colon carcinoma cells WiDr (5,000,000 cells) were subcutaneously transplanted to a thoracic part of each of Balb/C female nude mice (7 weeks of age). On the 5th day after the transplantation, the tumor size was measured. Five mice (per group) with almost the same tumor size were used for this experiment. Each of solutions of 2-amino-1-methylimidazole hydrochloride (50 mg/kg body weight, 100 mg/kg body weight and 200 mg/kg body weight) of the present invention in physiological saline was orally administered 3 times a day for 3 days. The day following the end of the administration, the tumor size was measured. The tumor volume was calculated from the following equation:
(§2) Tumor volume=(major axis)×(minor axis)×(minor axis)×(1/2)
(§3) The ratio of the tumor volume in the treated group to that in a control group to which physiological saline was administered was calculated as a proliferation rate.

[21] = system: human colon carcinoma cells WiDr transplanted to nude mice; experiment: Activity of a compound having a protective group at the 2-amino group, WiDr transplanted to nude mice (Test Example 4); format: in vivo, human cells in Balb/C female nude mice; conditions: oral
Experimental: Activity of a compound having a protective group at the 2-amino group
The human colon carcinoma cells WiDr (5,000,000 cells) were subcutaneously transplanted to the thoracic parts of Balb/C female nude mice (7 weeks old). On the 5th day after the transplantation, the tumor cell size was measured. Five mice (per group) with almost the same tumor size were used for this experiment. A solution of 2-benzyloxycarbonylamino-1-methylimidazole hydrochloride (80 mg/kg body weight) of the present invention in physiological saline was orally administered 3 times a day for 3 days. The day following the end of the administration, the tumor cell size was measured. The tumor volume was calculated from the following equation:
as §2, §3

[22] = HEL, 3 days incubation, MTT (Table 1)
[23] = 3 days incubation, MTT (Table 1)

Compound: CCn1ccnc1N.Cl [2-Amino-1-ethylimidazole hydrochloride]
IC50 [1]: 50 mM | IC50 [2, 22]: > 80 µg/mL | IC50 [3, 23]: 4.4 µg/mL

Compound: Cl.Cn1ccnc1N [2-Amino-1-methylimidazole hydrochloride]
IC50 [1]: 30 mM | Selective inhibition of proliferation (in words) [4]: selectively inhibits the proliferation of the large intestinal cancer cell strains | IC50 [5]: 11 µg/mL | IC50 [6]: 2.8 µg/mL | IC50 [7]: > 80 µg/mL | IC50 [8]: 3.9 µg/mL | IC50 [9]: 1.1 µg/mL | IC50 [10]: > 80 µg/mL | IC50 [11]: 20 µg/mL | IC50 [12]: 7.6 µg/mL | IC50 [13]: > 80 µg/mL | IC50 [14]: 5.2 µg/mL | IC50 [15]: 7 µg/mL | IC50 [16]: 8.6 µg/mL | IC50 [17]: 6.3 µg/mL | IC50 [18]: 13 µg/mL | IC50 [19]: > 80 µg/mL | IC50 [2, 22]: > 80 µg/mL | IC50 [3, 23]: 1.1 µg/mL | Proliferation rate (tumor volume, treated/control) ([20]; 50 mg/kg): 76% | Proliferation rate (tumor volume, treated/control) ([20]; 100 mg/kg): 64% | Proliferation rate (tumor volume, treated/control) ([20]; 200 mg/kg): 49% | Inhibition of proliferation of transplanted WiDr (in words) ([20]; nude mice): inhibited the proliferation of the human colon carcinoma cell strain WiDr transplanted to the nude mice in a concentration-dependent manner

Compound: CN1CCN=C1N [2-Amino-1-methylimidazoline hydrochloride]
IC50 [1]: 100 mM | IC50 [2, 22]: > 80 µg/mL | IC50 [3, 23]: 1.4 µg/mL

Compound: Nc1ncc[nH]1.O=S(=O)(O)O [2-Aminoimidazole sulfate]
IC50 [2]: > 80 µg/mL | IC50 [3]: 12 µg/mL

Compound: C=CCn1ccnc1N.Cl [Example 1, 2-amino-1-(2-propenyl)imidazole hydrochloride]
IC50 [2, 22]: > 80 µg/mL | IC50 [3, 23]: 4.2 µg/mL

Compound: Cn1ccnc1NC(=O)OCc1ccccc1 [Example 4, 2-benzyloxycarbonylamino-1-methylimidazole hydrochloride]
Proliferation rate (tumor volume, treated/control) ([21]; 80 mg/kg, 3 times a day for 3 days, control = 100): 70% | Inhibition of proliferation of transplanted WiDr (in words) ([21]; nude mice): inhibited the proliferation of the human large intestinal cancer cell strain WiDr transplanted to nude mice

Compound: COC(=O)[C@@H](N)Cn1ccnc1N [Example 5, 3-(2-aminoimidazol-1-yl)-L-alanine methyl ester dihydrochloride]
IC50 [1]: 40 mM

Continued, in another order:

IC50 [3, 23]: 5 µg/mL
Compound: COC(=O)[C@@H](N)CCC(=O)Nc1nccn1C [Example 8, methyl (2S)-2-amino-4-[(1-methylimiazol-2-yl)carbamoyl]butyrate dihydrochloride]
IC50 [2, 22]: > 80 µg/mL

IC50 [3, 23]: 5 µg/mL (≈ 22.1 µM)
Compound: Cn1ccnc1NC(=O)CC[C@H](N)C(=O)O [Example 9, (2S)-2-amino-4-[(1-methylimidazol-2-yl)carbamoyl]butyric acid]
IC50 [2, 22]: > 80 µg/mL

IC50 [3, 23]: 11 µg/mL
Compound: COC(=O)[C@@H](N)CC(=O)Nc1nccn1C.Cl.Cl [Example 13, methyl (2S)-2-amino-3-[(1-methylimidazol-2-yl)carbamoyl]propionate dihydrochloride]
IC50 [2, 22]: > 80 µg/mL

IC50 [3, 23]: 1.4 µg/mL (≈ 7.56 µM)
Compound: Cn1ccnc1N=Cc1ccccc1 [Reference Example 7, N-(1-methylimidazol-2-yl)benzylideneamine]
IC50 [2, 22]: > 80 µg/mL

IC50 [3, 23]: 2.2 µg/mL
Compound: COc1ccc(C=Nc2nccn2C)cc1.Cl [Reference Example 9, N-(1-methylimidazol-2-yl)-4-methoxybenzylideneamine hydrochloride]
IC50 [2, 22]: > 80 µg/mL
